Results: patent US12281112B2, “Compounds for inhibiting NLRP3 and uses thereof” (Ventus Therapeutics U.S., Inc., priority 2021, dated 2025)
pIC50: −log10 of the molar value.

Tests used:
NLRP3 [1] = target: T1, NLRP3 (Homo sapiens, UniProt Q96P20); assay: Human PBMC NLRP3 Assay; assay type: cell-based
Method: Human PBMC NLRP3 Assay: Cryopreserved PBMCs were rapidly thawed in a 37° C. water bath for 2 min. […] A count was undertaken using a hemocytometer and adjusted to 2.5×10^5 cells/mL. V-shaped 96-well plates were seeded with 200 μL of PMBCs (5×10^4) per well and subsequently incubated overnight at 37° C. with 5% CO2. Assay Media was then prepared containing 100 ng/ml of LPS. PBMCs were then centrifuged at 1,200 RPM for 5 min, serum containing media was aspirated, and 150 μL/well of Assay Media+LPS was immediately added. Assay Media without LPS was added in the untreated control wells. Cells were then primed with LPS for 4 h at 37° C. with 5% CO2. A concentration response curve (CRC) was prepared of 1000× test compound in 100% DMSO. The CRC was then diluted 1:50 in Assay Media and then further diluted by 1:5× in Assay Media resulting in a final 4×CRC in 0.4% DMSO/Assay Media. 50 μL/well of 4× test compound CRC or vehicle (0.4% DMSO/Assay Media) was then transferred into each well and subsequently incubated for 30 min at 37° C. with 5% CO2. Cells were stimulated by adding 4 μL of 250 mM ATP, using a 250 mM stock prepared in 1 M Hepes without further dilution (for a final concentration of 5 mM), for 1 h at 37° C. with 5% CO2. Plates were then centrifuged at 1200 RPM for 5 min; and 50 μl of the media was transferred to a clean 96-well storage plate for cytokine measurements using the mesoscale platform, and stored at −80° C. until analyzed.

NLRP3 [2] = target: T1, NLRP3; assay: Human whole blood (hWB) NLRP3 Assay; assay type: cell-based; set-up: Blood is collected from healthy volunteers in heparin lithium tubes; from tissue; host or cells: pooled heparinised whole blood from healthy human volunteers, LPS-primed, ATP-stimulated
Method: Blood is collected from healthy volunteers in heparin lithium tubes. • 2. Plate 90 μL of pooled blood per well in 96-well U-bottom plates. • 3. Add 5 uL of 20×LPS (20 ug/mL, final concentration of 1 ug/mL) and mix by gentle pipetting. • 4. Incubate in TC incubator for 4.5 hours. • 5. Add 5 uL of 20× compound or vehicle per well and mix by gentle pipetting. • a. Compounds are diluted 1/50 in HBSS to prepare a 20× dilution curve in 2% DMSO • 6. Incubate for 30 minutes in TC incubator with shaking (450 rpm). • 7. […] Incubate in TC incubator for 30 minutes with shaking (450 rpm). • 9. Centrifuge plate for 10 minutes at 800×g and carefully remove ˜70 μL of plasma. Freeze plasma if required. • 10. Analyze human IL-1b with IL-1b MSD assay (K151TUK) • a.

[3] = Table 6: regioisomer comparison
[4] = LPS 1 ug/mL 4.5 h, compound 30 min, ATP 5 mM 30 min, IL-1b MSD assay, potency code
[5] = Table 5: fused bicyclic analogs vs monocyclic pyridazines
[6] = human PBMCs primed with LPS 4 h, compound 30 min, ATP 5 mM 1 h, cytokine measurement on mesoscale platform, potency code

T1 sequence (Q96P20 whole entry): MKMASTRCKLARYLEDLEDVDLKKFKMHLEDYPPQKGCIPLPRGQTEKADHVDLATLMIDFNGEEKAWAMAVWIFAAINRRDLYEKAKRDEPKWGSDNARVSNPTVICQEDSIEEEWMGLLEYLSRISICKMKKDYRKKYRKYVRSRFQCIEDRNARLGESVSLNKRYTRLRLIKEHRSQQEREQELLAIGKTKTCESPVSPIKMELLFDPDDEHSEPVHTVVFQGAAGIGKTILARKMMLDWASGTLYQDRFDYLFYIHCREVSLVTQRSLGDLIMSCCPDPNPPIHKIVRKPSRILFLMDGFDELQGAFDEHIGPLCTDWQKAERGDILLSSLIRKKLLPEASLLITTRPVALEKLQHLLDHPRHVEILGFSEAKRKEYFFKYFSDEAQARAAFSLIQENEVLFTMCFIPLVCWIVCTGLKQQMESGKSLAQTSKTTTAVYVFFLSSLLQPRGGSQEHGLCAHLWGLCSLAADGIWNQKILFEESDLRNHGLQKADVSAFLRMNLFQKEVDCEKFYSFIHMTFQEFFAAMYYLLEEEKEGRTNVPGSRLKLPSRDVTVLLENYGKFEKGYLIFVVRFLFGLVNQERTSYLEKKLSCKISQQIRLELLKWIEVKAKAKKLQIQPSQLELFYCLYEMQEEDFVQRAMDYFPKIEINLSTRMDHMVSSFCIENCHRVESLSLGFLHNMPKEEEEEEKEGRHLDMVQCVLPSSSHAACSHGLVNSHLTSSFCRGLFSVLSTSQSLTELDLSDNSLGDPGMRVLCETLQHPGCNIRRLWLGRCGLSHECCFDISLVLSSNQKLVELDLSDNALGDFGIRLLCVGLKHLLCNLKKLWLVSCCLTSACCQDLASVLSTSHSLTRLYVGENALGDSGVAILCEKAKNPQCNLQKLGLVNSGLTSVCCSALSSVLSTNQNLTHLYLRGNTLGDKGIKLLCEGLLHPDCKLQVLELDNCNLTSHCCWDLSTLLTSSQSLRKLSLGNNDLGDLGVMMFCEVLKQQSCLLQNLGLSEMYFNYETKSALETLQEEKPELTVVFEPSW

SMILES | pIC50 (NLRP3 [2]; [4]) | pIC50 (NLRP3 [1]; [6]) | also measured
Clc1ccc(-c2ccc(NCC3CCCO3)nn2)cc1 (stereo not shown) [drawing 171] |  |  | pIC50 (NLRP3 [1]; [3]): 4.19; pIC50 (NLRP3 [2]; [3]): < 4.30
Clc1ccc(-c2nnc(NCC3CCCO3)c3ccncc23)cc1 (single isomer, unassigned) |  |  | pIC50 (NLRP3 [1]; [3]): 5.54
Brc1ccc(-c2nnc(NCC3CCCO3)c3ccccc23)cc1 (stereo not shown) [drawing 168] |  |  | pIC50 (NLRP3 [1]; [5]): 6.72
CC1(CNc2ccc(-c3ccc(Br)cc3)nn2)CCCO1 (stereo not shown) [Compound 6, 6-(4-bromophenyl)-N-[(2-methyltetrahydrofuran-2-yl)methyl]pyridazin-3-amine] | > 6.52 | < 6.00 | 
Cc1cc(Cl)ccc1-c1nnc(NCC2CCCO2)c2ccccc12 (stereo not shown) [Compound 20, 4-(4-chloro-2-methyl-phenyl)-N-(tetrahydrofuran-2-ylmethyl)phthalazin-1-amine] | 6.30 to 6.52 | 6.30 to 6.52 | 
CC(C)(O)CNc1nnc(-c2ccc(Cl)cc2O)c2ccncc12 [Compound 82, 5-chloro-2-(4-((2-hydroxy-2-methylpropyl)amino)pyrido[3,4-d]pyridazin-1-yl)phenol] |  | > 6.52 | 
Clc1ccc(-c2nnc(NC[C@H]3CCCO3)c3cc(Cl)ccc23)cc1 (racemic) [Compound 21, 7-chloro-4-(4-chlorophenyl)-N-[[rac-(2R)-tetrahydrofuran-2-yl]methyl]phthalazin-1-amine] | > 6.52 | 6.30 to 6.52 | 
Oc1cc(Cl)ccc1-c1nnc(NC[C@H]2CCC(F)(F)C2)c2cnccc12 (single isomer, unassigned) [Compound 91] |  | > 6.52 | 
Clc1ccc(-c2nnc(OC[C@H]3CCCO3)c3ccncc23)cc1 [Compound 4, (R)-4-(4-chlorophenyl)-1-((tetrahydrofuran-2-yl)methoxy)pyrido[3,4-d]pyridazine] | 6.30 to 6.52 |  | 
Oc1cc(Cl)ccc1-c1nnc(N[C@H]2CCOC2)c2cnccc12 [Compound 89, (S)-5-chloro-2-(4-((tetrahydrofuran-3-yl)amino)pyrido[3,4-d]pyridazin-1-yl)phenol] |  | > 6.52 | 
Clc1ccc(-c2nnc(OC[C@H]3CCCO3)c3cnccc23)cc1 [Compound 3, (R)-1-(4-chlorophenyl)-4-((tetrahydrofuran-2-yl)methoxy)pyrido[3,4-d]pyridazine] | 6.30 to 6.52 |  | 
COC(C)(C)CNc1nnc(-c2ccc(Cl)cc2O)c2ccncc12 [Compound 83, 5-chloro-2-(4-((2-methoxy-2-methylpropyl)amino)pyrido[3,4-d]pyridazin-1-yl)phenol] |  | > 6.52 | 
Clc1ccc(-c2ccc(NCC3CCCO3)nn2)cc1 (stereo not shown) [drawing 169] |  |  | pIC50 (NLRP3 [1]; [5]): 4.19
Clc1ccc(-c2nnc(NCC3CCCO3)c3ccncc23)cc1 (stereo not shown) [Compound 15, 4-(4-chlorophenyl)-N-(tetrahydrofuran-2-ylmethyl)pyrido[3,4-d]pyridazin-1-amine] | 6.00 to 6.30 | < 6.00 | 
CN1CCC[C@H]1CNc1nnc(-c2ccc(Cl)cc2O)c2ccncc12 [Compound 93, (S)-5-chloro-2-(4-(((1-methylpyrrolidin-2-yl)methyl)amino)pyrido[3,4-d]pyridazin-1-yl)phenol] |  | > 6.52 | 
Brc1ccc(-c2ccc(NCC3CCCO3)nn2)cc1 (stereo not shown) |  |  | pIC50 (NLRP3 [1]; [5]): 5.42
FC(F)(F)c1ccc(-c2nnc(NCC3CCCO3)c3ccccc23)cc1 (stereo not shown) [Compound 11, N-(tetrahydrofuran-2-ylmethyl)-4-[4-(trifluoromethyl)phenyl]phthalazin-1-amine] | > 6.52 | > 6.52 | 
Clc1ccc(-c2nnc(NC[C@@H]3CCCO3)c3ccncc23)cc1 [Compound 2, (S)-4-(4-chlorophenyl)-N-((tetrahydrofuran-2-yl)methyl)pyrido[3,4-d]pyridazin-1-amine] | > 6.52 |  | 

More lines, main results first:

pIC50 (NLRP3 [2]; [4]) | pIC50 (NLRP3 [1]; [6]) | SMILES | also measured
> 6.52 |  | CC1(CNc2nnc(-c3ccc(Cl)cc3)c3ccccc23)CCCO1 (stereo not shown) [Compound 8, 4-(4-chlorophenyl)-N-[(2-methyltetrahydrofuran-2-yl)methyl]phthalazin-1-amine] | 
6.00 to 6.30 |  | Clc1ccc(-c2nnc(NCC3CCCOC3)c3ccccc23)cc1 (stereo not shown) [Compound 9, 4-(4-chlorophenyl)-N-(tetrahydropyran-3-ylmethyl)phthalazin-1-amine] | 
6.00 to 6.30 |  | OCCNc1nnc(-c2ccc(Cl)cc2)c2ccccc12 [Compound 16, 2-[[4-(4-chlorophenyl)phthalazin-1-yl]amino]ethanol] | 
< 6.00 | 6.00 to 6.30 | Clc1ccc(-c2nnc(NCC3COCCO3)c3ccccc23)cc1 (single isomer, unassigned) [Compound 23] | 
< 6.00 |  | Clc1ccc(-c2nnc(NCC3CCCCO3)c3ccccc23)cc1 (stereo not shown) [Compound 17, 4-(4-chlorophenyl)-N-(tetrahydropyran-2-ylmethyl)phthalazin-1-amine] | 
6.30 to 6.52 |  | CN(CC1CCCO1)c1nnc(-c2ccc(Cl)cc2)c2ccccc12 (stereo not shown) [Compound 19, 4-(4-chlorophenyl)-N-methyl-N-(tetrahydrofuran-2-ylmethyl)phthalazin-1-amine] | 
> 6.52 |  | COCCNc1nnc(-c2ccc(Cl)cc2)c2ccccc12 [Compound 18, 4-(4-chlorophenyl)-N-(2-methoxyethyl)phthalazin-1-amine] | 
6.00 to 6.30 |  | CC1COC(CNc2nnc(-c3ccc(Cl)cc3)c3ccccc23)C1 (stereo not shown) [Compound 22, 4-(4-chlorophenyl)-N-[(4-methyltetrahydrofuran-2-yl)methyl]phthalazin-1-amine] | 
> 6.52 |  | Clc1ccc(-c2nnc(NCC3COCCO3)c3ccccc23)cc1 (single isomer, unassigned) [Compound 24] | 
< 6.00 | > 6.52 | Brc1ccc(-c2nnc(NCC3CCCO3)c3ccccc23)cc1 (stereo not shown) [Compound 7, 4-(4-bromophenyl)-N-(tetrahydrofuran-2-ylmethyl)phthalazin-1-amine] | 
< 6.00 |  | Clc1ccc(-c2nnc(NCC3CCOCC3)c3ccccc23)cc1 [Compound 10, 4-(4-chlorophenyl)-N-(tetrahydropyran-4-ylmethyl)phthalazin-1-amine] | 
